# Reference: US12582631B2, “Methods of improving renal function” (Chinook Therapeutics, Inc., priority 2019, dated 2026)
# pIC50: −log10 of the molar value. Entries after “also recorded” stand apart in the source; their conditions may differ. Read-outs that look alike come from different tables or passages of the source. Positions of bridges follow the written chain, without caps; N, C: chain ends. No end group written: not given here.
# Columns and labels:
# [1] = tested on: canonical signaling pathways in kidney tissue of g-ddY mice; assay: Ingenuity Pathway Analysis (IPA) of canonical pathways, g-ddY kidney RNA-seq; type: in vivo, mouse; settings: 30 mg/kg/day
# g-ddY mice = assay: UACR (albuminuria) in g-ddY mouse model of IgA nephropathy; type: in vivo; settings: approximately 5 days
# Excerpt: The grouped ddY (g-ddY) mouse is a spontaneous model of early-onset IgA nephropathy characterized by IgA immune complex deposition in the mesangium of the kidney, leading to significant proteinuria, glomerular hypercellularity, mesangioproliferative glomerular lesions, glomerular sclerosis and reduced kidney function, all hallmarks of human IgA nephropathy (J Am Soc Nephrol 23: 1364-1374, 2012). Consistent with human IgA nephropathy, the mesangial IgA deposits in the g-ddY mouse are also accompanied by deposition of IgG and complement C3.
# [2] = tested on: primary human renal mesangial cells (HRMCs); assay: Proliferation (BrdU) of HRMCs stimulated with IgA-containing immune complexes from IgAN patients; type: cell-based; settings: HRMCs treated with IgA containing serum fractions from healthy controls
# [3] = tested on: IL-6 production in primary human renal mesangial cells (HRMCs); assay: ET-1 induced IL-6 production in HRMCs (ELISA); type: cell-based; settings: for pIC50: Homo sapiens, Mesangial cell, read-out: IC50, ET-1 stimulated IL-6 production
# ET-1 stimulated HRMC = assay: Hallmark gene set enrichment in ET-1 stimulated HRMC treated with atrasentan; type: cell-based, human; settings: atrasentan at 1 nM and 25 nM
# [4] = tested on: hallmark gene sets in kidney tissue of g-ddY mice; assay: Gene Set Enrichment Analysis (GSEA) of hallmark gene sets, g-ddY kidney RNA-seq; type: in vivo, mouse
# [5] = tested on: gene expression in kidney tissue of g-ddY mice; assay: RNA-seq differential gene expression in kidney tissue of g-ddY mice (edgeR); type: in vivo, mouse
# Procedure: RNA isolation and sequencing libraries were generated using standard protocols. Sequencing was performed using an Illumina NextSeq500 using manufacturer's instructions with a read length of 75 bp and a read depth of 30 million. Raw data was assembled to FASTQ files. Following QC analysis, high quality sequencing reads (e.g., reads with a Phred quality score >36) were aligned to the mouse reference genome (GRCm38-mm10) using the default parameters of the align algorithm and transcript count tables of each library was generated using the default parameters of the featureCounts algorithm of the RSubread package (Liao […], Shi W, 2019). High quality sequencing reads mapped to 27,129 genes. Following additional QC of low count filtering (i.e. transcripts <10 counts across all samples), 16,207 genes were identified and used for further analysis. The remaining sequencing read counts of the included 16,207 genes were normalized to library size, log-transformed, and were quantified as counts per million (CPM). Select RNA-seq counts were validated using qPCR. Sequencing read counts (CPM) were used for identification of differential gene expression between specified populations using the quasi-likelihood methodology of the edgeR package. […] MA plots were generated using edgeR. Heatmaps and other plots were generated using the gplots and ggplot2 package.
molecule,measurement,setting,value
"CCCCN(CCCC)C(=O)CN1C[C@H](c2ccc3c(c2)OCO3)[C@@H](C(=O)O)[C@@H]1c1ccc(OC)cc1 [atrasentan, (2R,3R,4S)-4-(1,3-benzodioxol-5-yl)-1-[2-(dibutylamino)-2-oxoethyl]-2-(4-methoxyphenyl)pyrrolidine-3-carboxylic acid]",NF-κB signaling,[1],reduced NF-κB signaling
same,PDGF signaling,[1],reduced PDGF signaling
same,reduction of UACR from baseline,g-ddY mice; 20 mg/kg/day in drinking water,> 60%
same,albuminuria compared to baseline (paired t-test),g-ddY mice; 20 mg/kg/day,reduced from baseline to a similar extent
same,effect on UACR compared to control group (un-paired t-test),g-ddY mice; 20 mg/kg/day,statistically significant compared to the control group; also recorded: significantly reduced albuminuria
same,reduction of UACR from baseline,g-ddY mice; 30 mg/kg/day in drinking water,> 60%
same,albuminuria compared to baseline (paired t-test),g-ddY mice; 30 mg/kg/day,reduced albuminuria from baseline
same,effect on UACR compared to control group (un-paired t-test),g-ddY mice; 30 mg/kg/day,statistically significant compared to the control group; also recorded: significantly reduced albuminuria
same,basal cell proliferation,[2],had no effect on basal cell proliferation
same,pIC50,"[3]; 48 h, 10 ng/mL ET-1, 48 hours",~9.00
same,pIC50,"[3]; 72 h, 10 ng/mL ET-1, 72 hours",~9.00
same,enrichment of hallmark gene sets,ET-1 stimulated HRMC,under-expression of hallmark gene sets
same,IL-6 signaling,[4]; 30 mg/kg/day,reduced IL-6 signaling
same,cell proliferation associated signaling (mitotic spindle and G2M checkpoint),[4]; 30 mg/kg/day,reduced cell proliferation associated signaling
same,inflammatory response signaling,[4]; 30 mg/kg/day,reduced inflammatory response signaling
same,"NES of hallmark signaling pathways (TNFα signaling via NF-κB, epithelial mesenchymal transition, inflammatory response, IL6-JAK-STAT3 signaling, mitotic spindle, G2M checkpoint)","[4]; 10, 20, and 30 mg/kg/day, adjusted p-value <0.05",< −1.5
same,differentially expressed genes of the ET1 gene signature,[5]; 10 mg/kg/day vs untreated control,"Ccnd1, Ppara, Agt, Map2k2 and Hoxa9 were upregulated while Grk5, Mllt3, Klf2, Pparg, Hgf, Edn1, Fos, Ptgs2, and IL-1b were downregulated"
same,differentially expressed genes of the ET1 gene signature,[5]; 20 mg/kg/day vs untreated control,"Ccdn1, Cat, Ppara, Map2k2, Hoxa9, Agt, and Egfr were upregulated while Nfatc1, Grk5, Klf2, Cav1, Pparg, Itga5, Myc, Ednra, Sell, Hgf, Mmp2, Edn1, Syk, Fos, and IL-1b were downregulated"
same,Ednra and Ednrb gene expression,[5]; 30 mg/kg/day,downregulated
same,differentially expressed genes of the ET1 gene signature,[5]; 30 mg/kg/day vs untreated control,"upregulated genes Ccnd1, Agt, Cat, Map2k2, Hoxa9, and Ppara and downregulated genes Ednrb, Myc, Mllt3, Hdac7, Ednra, Itga5, Grk5, Pparg, Klf2, Hgf, Mmp2, Sell, Sphk1, Fos, Syk, Edn1, and IL-1b"
same,ET1 (End1) gene expression,"[5]; all three doses (10, 20, 30 mg/kg/day)",downregulated
"ET-1: endothelin 1 (ET-1), used at 10 ng/mL to stimulate primary human mesangial cells (CSCSSLMDKECVYFCHLDIIW; disulfide 1-15, 3-11; ends not checked; UniProt P05305 53-73, looked up)",increase in IL-6 production,[3]; HRMCs exposed to ET-1 over 48 hours,~6 fold
same,increase in IL-6 production,[3]; HRMCs exposed to ET-1 over 72 hours,~2.2 fold
